Measured values reported in patent US10682371B2, “Small molecule conjugates specifically activated in tumor microenvironment for targeting and use thereof” (priority 2014, dated 2020).
Read-outs that look alike come from different tables or passages of the source.

Key:
[1] = tested on: Human breast cancer MDA-MB435 tumor tissue homogenate; type: biochemical; conditions: for Activation ratio (%) in homogenates from different tumor tissues: Human breast cancer MDA-MB435
In short: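 For protease-mediated activation, 100 μg of MDA-MB435 breast cancer tumor homogenate, acidified to pH6.0, received compound at 1 mg/ml at 37° C.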

[2] = tested on: Human prostate cancer PC-3 tumor tissue homogenate; type: biochemical; conditions: for Activation ratio (%) in homogenates from different tumor tissues: Human prostate cancer PC-3
In short: (§1)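 37° C; compound 1 mg/ml into 100 μg acidified tissue homogenate, pH6.0. Read-out: protease-mediated activation.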

[3] = tested on: Human ovarian cancer SK-OV-3 tumor tissue homogenate; type: biochemical; conditions: for Activation ratio (%) in homogenates from different tumor tissues: Human ovarian cancer SK-OV-3
In short: as §1

[4] = tested on: Human colon cancer HT-29 tumor tissue homogenate; type: biochemical; conditions: for Activation ratio (%) in homogenates from different tumor tissues: Human colon cancer HT-29
In short: as §1

[5] = tested on: Human chronic leukemia K562 tumor tissue homogenate; type: biochemical; conditions: for Activation ratio (%) in homogenates from different tumor tissues: Human chronic leukemia K562
In short: as §1

[6] = tested on: Human pancreatic cancer Panc-1 tumor tissue homogenate; type: biochemical; conditions: for Activation ratio (%) in homogenates from different tumor tissues: Human pancreatic cancer Panc-1
In short: as §1

[7] = tested on: Human renal cancer OS-RC-2 tumor tissue homogenate; type: biochemical; conditions: for Activation ratio (%) in homogenates from different tumor tissues: Human renal cancer OS-RC-2
In short: as §1

[8] = tested on: Human liver cancer Hepg2 tumor tissue homogenate; type: biochemical; conditions: for Activation ratio (%) in homogenates from different tumor tissues: Human liver cancer Hepg2
In short: as §1

[9] = tested on: Human non-small cell lung cancer A549 tumor tissue homogenate; type: biochemical; conditions: for Activation ratio (%) in homogenates from different tumor tissues: Human non-small cell lung cancer A549
In short: as §1

D121 lung tumor cells = type: in vivo, C57 mice; conditions: for Treatment effects on C57 mice, in words: compared to the control group and the other treatment groups
In short: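 Endpoint is tumor inhibition rate from tumor size (mm^3) after weekly drug treatment for 4 weeks, begun once s.c. tumors from 10^6 live D121 cells reached 0.3-0.4 cm. Before challenge, C57 mice received three i.p. doses of 5×10^5 irradiated D121 cells, two weeks apart, or saline.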

tumor CD8+ T cells = type: in vivo, C57 mice
In short: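 Flow cytometric ratio of CD8⁺ to CD45⁺ cells in dissociated tumour. Cell suspensions were labelled with CD45-PE and CD8-FITC for 1 h at room temperature, then washed twice in phosphate buffer with 1% fetal bovine serum.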

[10] = Day 18, immunized C57 mice, drugs 13.2 μmol/kg, PDL1 antibody 5 μg/kg, weekly for 4 weeks
[11] = 100 μg acidized homogenate pH6.0, 1 mg/ml, 37°
[12] = D121 immunized C57 mice, drugs weekly for 4 weeks, Day 18 (Example 23)
[13] = D121 immunized C57 mice (Example 23), CD8 positive cells in CD45 positive cells of tumor

| SMILES | Treatment effects on C57 mice, in words (D121 lung tumor cells) | Activation ratio (%) in homogenates from different tumor tissues [1, 11] | Activation ratio (%) in homogenates from different tumor tissues [2, 11] | Activation ratio (%) in homogenates from different tumor tissues [3, 11] | Activation ratio (%) in homogenates from different tumor tissues [4, 11] | Activation ratio (%) in homogenates from different tumor tissues [5, 11] | Activation ratio (%) in homogenates from different tumor tissues [6, 11] | Activation ratio (%) in homogenates from different tumor tissues [7, 11] | Activation ratio (%) in homogenates from different tumor tissues [8, 11] | Activation ratio (%) in homogenates from different tumor tissues [9, 11] | Size of tumor (mm^3) Day 18 (D121 lung tumor cells; [12]) | inhibitory rate on tumor % Day 18 (D121 lung tumor cells; [12]) | CD8: CD45 (%) (tumor CD8+ T cells; [13]) | also measured |
| --- | --- | --- | --- | --- | --- | --- | --- | --- | --- | --- | --- | --- | --- | --- |
| COCCOCC(=O)N[C@H](C)C(=O)N[C@H](C)C(=O)N[C@H](CC(N)=O)C(=O)Nc1ccc(COC(=O)N2[C@@H]3CN4C5=C(C(=O)C(N)=C(C)C5=O)[C@H](COC(N)=O)[C@]4(OC)[C@@H]32)cc1 [Compound E1, 2-(2-methoxyethoxy) acetyl-L-Ala-L-Ala-L-Asn-4-amino benzyl mitomycin] | greatly improved | – | – | – | – | – | – | – | – | – | – | – | – | Activation ratio (%) in homogenates from different tumor tissues ([1]; 37° C., 1 mg/ml): 97.3%; Activation ratio (%) in homogenates from different tumor tissues ([2]; 37° C., 1 mg/ml): 78.9%; Activation ratio (%) in homogenates from different tumor tissues ([3]; 37° C., 1 mg/ml): 93.5%; Activation ratio (%) in homogenates from different tumor tissues ([4]; 37° C., 1 mg/ml): 94.2%; Activation ratio (%) in homogenates from different tumor tissues ([5]; 37° C., 1 mg/ml): 74.5%; Activation ratio (%) in homogenates from different tumor tissues ([6]; 37° C., 1 mg/ml): 89.4%; Activation ratio (%) in homogenates from different tumor tissues ([7]; 37° C., 1 mg/ml): 99.7%; Activation ratio (%) in homogenates from different tumor tissues ([8]; 37° C., 1 mg/ml): 94.6%; Activation ratio (%) in homogenates from different tumor tissues ([9]; 37° C., 1 mg/ml): 97.4%; Size of tumor (mm^3) Day 18 (D121 lung tumor cells; [10]): 237.60 ± 358.57 mm^3; inhibitory rate on tumor % Day 18 (D121 lung tumor cells; [10]): 83.27%; Effect together with PDL1-antibody in promoting immunization and treatment, in words (D121 lung tumor cells; combination with PDL1-antibody): excellent synergistic effect; CD8: CD45 (%) (tumor CD8+ T cells; ratio of CD8 positive cells in CD45 positive cells of tumor, flow cytometry, drugs 13.2 μmol/kg, PDL1 antibody 5 μg/kg): 18.4% |
| CCCCCOC(=O)Nc1nc(=O)n([C@@H]2O[C@H](C)[C@@H](OC(=O)OCc3ccc(NC(=O)[C@H](CC(N)=O)NC(=O)[C@H](C)NC(=O)[C@H](C)NC(=O)CCCCCCC(=O)NO)cc3)[C@H]2O)cc1F [Compound S3, 4-N—(N—(N—(N-(8-(N-hydroxylamino)-1,8-octandioic acid-1-monoacyl)-L-alanyl)-L-alanyl)-L-asparaginyl)-amino benzyl alcohol-capecitabine-carbonic acid diester] | greatly improved | – | – | – | – | – | – | – | – | – | – | – | – | Activation Efficiencies (%) ([1]; Human breast cancer MDA-MB435 tumor tissue homogenate (30 μg/ml), 1 mg/ml compound): 70.1%; Activation Efficiencies (%) ([2]; Human prostate cancer PC-3 tumor tissue homogenate (30 μg/ml), 1 mg/ml compound): 98.3%; Activation Efficiencies (%) ([3]; Human ovarian cancer SK-OV-3 tumor tissue homogenate (30 μg/ml), 1 mg/ml compound): 94.3%; Activation Efficiencies (%) ([4]; Human colon cancer HT-29 tumor tissue homogenate (30 μg/ml), 1 mg/ml compound): 81.7%; Activation Efficiencies (%) ([5]; Human chronic leukemia K562 tumor tissue homogenate (30 μg/ml), 1 mg/ml compound): 93.2%; Activation Efficiencies (%) ([6]; Human pancreatic cancer Panc-1 tumor tissue homogenate (30 μg/ml), 1 mg/ml compound): 91.6%; Activation Efficiencies (%) ([7]; Human renal cancer OS-RC-2 tumor tissue homogenate (30 μg/ml), 1 mg/ml compound): 67.4%; Activation Efficiencies (%) ([8]; Human liver cancer Hepg2 tumor tissue homogenate (30 μg/ml), 1 mg/ml compound): 94.5%; Activation Efficiencies (%) ([9]; Human non-small cell lung cancer A549 tumor tissue homogenate (30 μg/ml), 1 mg/ml compound): 80.7%; Size of tumor (mm^3) Day 18 (D121 lung tumor cells; D121 immunized C57 mice, 13.2 μmol/kg weekly, PDL1 antibody 5 μg/kg where combined, Day 18): 425.67 ± 126.67 mm^3; CD8: CD45 (%) (tumor CD8+ T cells; D121 immunized C57 mice, 13.2 μmol/kg, ratio of CD8 positive cells in CD45 positive cells of tumor): 18.4% |
| COCCOCCOCCOCCOCCOCC(=O)N[C@H](C)C(=O)N[C@H](C)C(=O)N[C@H](CC(N)=O)C(=O)Nc1ccc(COC(=O)OC(C(=O)OC2C[C@@]3(O)[C@@H](OC(=O)c4ccccc4)[C@H]4[C@](C)(C(=O)[C@H](OC(C)=O)C(=C2C)C3(C)C)[C@@H](O)CC2OC[C@]24OC(C)=O)[C@@H](NC(=O)c2ccccc2)c2ccccc2)cc1 (some centres unmarked) [S2′] | greatly improved | 91.4% | 98.4% | 84.6% | 89.9% | 73.3% | 93.8% | 91.5% | 84.6% | 89.4% | 331.57 ± 114.74 mm^3 | 78.9% | 18.1% | – |
| COCCOCCOCCOCCOCCOCCOCCOCCOCCOCCOCCOCC(=O)N[C@H](C)C(=O)N[C@H](C)C(=O)N[C@H](CC(N)=O)C(=O)Nc1ccc(COC(=O)OC(C(=O)OC2C[C@@]3(O)[C@@H](OC(=O)c4ccccc4)[C@H]4[C@](C)(C(=O)[C@H](OC(C)=O)C(=C2C)C3(C)C)[C@@H](O)CC2OC[C@]24OC(C)=O)[C@@H](NC(=O)c2ccccc2)c2ccccc2)cc1 (some centres unmarked) [S3′] | greatly improved | 90.4% | 96.3% | 79.3% | 91.4% | 70.2% | 91.5% | 86.4% | 83.5% | 81.4% | 357.63 ± 194.54 mm^3 | 77.3% | 16.7% | activation efficiency (%) ([1]; human breast cancer (MDA-MB435) tumor tissue homogenates pH6.0, 100 μg, 1 mg/ml, control compounds vs S1′-S4′): 91.5% |
